In BindingDB's records for doi:10.7270/Q2Z899TZ (Columbia University Molecular Screening Center, 2007):

Target: T1, Tyrosine-protein phosphatase non-receptor type 22 (Homo sapiens, UniProt Q9Y2R2)
T1 sequence (Q9Y2R2 whole entry): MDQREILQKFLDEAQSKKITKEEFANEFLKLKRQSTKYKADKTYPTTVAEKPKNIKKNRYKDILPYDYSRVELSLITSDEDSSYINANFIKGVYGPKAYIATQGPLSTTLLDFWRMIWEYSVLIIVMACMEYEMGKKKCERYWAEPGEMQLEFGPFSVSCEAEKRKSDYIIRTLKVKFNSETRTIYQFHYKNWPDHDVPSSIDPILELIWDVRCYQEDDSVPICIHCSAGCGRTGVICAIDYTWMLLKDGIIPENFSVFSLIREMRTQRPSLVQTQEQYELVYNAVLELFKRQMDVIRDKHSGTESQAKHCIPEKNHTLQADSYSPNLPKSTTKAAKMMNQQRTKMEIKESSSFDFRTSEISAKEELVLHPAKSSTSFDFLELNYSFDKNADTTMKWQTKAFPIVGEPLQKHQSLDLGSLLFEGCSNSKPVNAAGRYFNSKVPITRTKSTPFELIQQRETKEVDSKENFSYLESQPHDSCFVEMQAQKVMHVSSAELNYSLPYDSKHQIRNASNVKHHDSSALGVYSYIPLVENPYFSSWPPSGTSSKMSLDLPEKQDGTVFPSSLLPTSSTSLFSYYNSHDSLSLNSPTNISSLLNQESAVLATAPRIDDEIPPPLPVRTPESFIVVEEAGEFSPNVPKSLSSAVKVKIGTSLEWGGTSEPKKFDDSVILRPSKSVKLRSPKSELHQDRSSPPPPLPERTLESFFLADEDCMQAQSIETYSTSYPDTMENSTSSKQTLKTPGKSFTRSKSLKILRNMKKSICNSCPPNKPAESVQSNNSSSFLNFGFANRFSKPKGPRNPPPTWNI
Experiment: inhibition of human PTPN22 tyrosine phosphatase – biochemical, DiFMUP fluorescence, recombinant catalytic domain, 10 µM, primary screen (AID 606)

Compared with `Cc1ccc2c(c1C)NC(C(=O)O)C1CC=CC21` (stereo unspecified), `CCn1nc(-c2ccccc2)nc2c(=O)n(C)c(=O)nc1-2` [1-Ethyl-6-methyl-3-phenyl-1H-pyrimido[5,4-e][1,2,4]triazine-5,7-dione] is 1.8-fold higher in IC50: 940 nM for the first, 1660 nM for the second.

First: CC(C)Cn1c(N)c(C(=O)COC(=O)c2cc(-c3ccco3)nc3ccccc23)c(=O)n(C)c1=O [2-(2-furanyl)-4-quinolinecarboxylic acid [2-[4-amino-1-methyl-3-(2-methylpropyl)-2,6-dioxo-5-pyrimidinyl]-2-oxoethyl] ester]
Second: COc1ccc(Cn2c(C)nc3c(c2=O)c2nc4ccccc4nc2n3Cc2ccco2)cc1 [MLS000079944]
The IC50 of the first is 3.3-fold higher: 5810 nM for the first, 1780 nM for the second.

First: O=C1C=Cc2ccccc2/C1=C/NC12CN3CCN(CN(C3)C1)C2 [MLS000071484]
Second: CCCCC[C@H](O)C=C[C@H]1C=CC(=O)[C@@H]1C/C=C\CCCC(=O)O [(Z)-7-[(1R,5S)-2-oxidanylidene-5-[(E,3S)-3-oxidanyloct-1-enyl]cyclopent-3-en-1-yl]hept-5-enoic acid]
The IC50 of the first is higher: greater than 40000 nM for the first, 6690 nM for the second.
